Laboratory results reported in PubChem BioAssay AID1963875 (Molecular Pharmacology Branch, DTP, NCI, 2024).
pIC50: −log10 of the molar value.

Test system: KRAS-mutant PDC complex spheroid viability
Experiment: Anticancer human tumor 186277-243-T-J2-PDC patient-derived colon adenocarcinoma cell line growth inhibition [KRAS2]
Conditions: for pIC50: curve of first compound; for viability, T/C: stronger effect = lower value
Outline: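 KRAS-mutant tumor cells were grown as spheroids with HUVEC endothelial cells and human MSCs as stroma. Targeted agents were tested alone and with KRAS pathway inhibitors. Doses started at or near clinical Cmax, or 10 microM, descending half-log.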

[1] = second compound 0.1 µM, first compound 0.0316 µM
[2] = second compound 0.1 µM, first compound 0.1 µM
[3] = second compound 0.1 µM, first compound 0.316 µM
[4] = second compound 0.1 µM, first compound 1 µM
[5] = second compound 0.1 µM, first compound 3.16 µM
[6] = second compound 0.1 µM, first compound 10 µM
[7] = second compound 0.316 µM, first compound 0.0316 µM
[8] = second compound 0.316 µM, first compound 0.1 µM
[9] = second compound 0.316 µM, first compound 0.316 µM
[10] = second compound 0.316 µM, first compound 1 µM
[11] = second compound 0.316 µM, first compound 3.16 µM
[12] = second compound 0.316 µM, first compound 10 µM
[13] = second compound 1 µM, first compound 0.0316 µM
[14] = second compound 1 µM, first compound 0.1 µM
[15] = second compound 1 µM, first compound 0.316 µM
[16] = second compound 1 µM, first compound 1 µM
[17] = second compound 1 µM, first compound 3.16 µM
[18] = second compound 1 µM, first compound 10 µM
[19] = second compound 3.16 µM, first compound 0.0316 µM
[20] = second compound 3.16 µM, first compound 0.1 µM
[21] = second compound 3.16 µM, first compound 0.316 µM
[22] = second compound 3.16 µM, first compound 1 µM
[23] = second compound 3.16 µM, first compound 3.16 µM
[24] = second compound 3.16 µM, first compound 10 µM
[25] = second compound 10 µM, first compound 0.0316 µM
[26] = second compound 10 µM, first compound 0.1 µM
[27] = second compound 10 µM, first compound 0.316 µM
[28] = second compound 10 µM, first compound 1 µM
[29] = second compound 10 µM, first compound 3.16 µM
[30] = second compound 10 µM, first compound 10 µM
[31] = second compound 0.0316 µM, first compound 0.01 µM
[32] = second compound 0.0316 µM, first compound 0.0316 µM
[33] = second compound 0.0316 µM, first compound 0.1 µM
[34] = second compound 0.1 µM, first compound 0.01 µM
[35] = second compound 0.316 µM, first compound 0.01 µM
[36] = second compound 1 µM, first compound 0.01 µM
[37] = second compound 3.16 µM, first compound 0.01 µM
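For viability, T/C in this document: viability read after seven days of compound exposure; 100% = DMSO vehicle-treated spheroids so lower means less viable.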

CC1OCC2(CCN(c3cnc(Sc4ccnc(N)c4Cl)c(N)n3)CC2)C1N (stereo not given) + C=CC(=O)N1CCN(c2nc(=O)n(-c3c(C)ccnc3C(C)C)c3nc(-c4c(O)cccc4F)c(F)cc23)C(C)C1
pIC50 (second compound 0.1 µM): < 5.00
pIC50 (second compound 0.316 µM): < 5.00
pIC50 (second compound 1 µM): < 5.00
pIC50 (second compound 3.16 µM): < 5.00
pIC50 (second compound 10 µM): 6.35
viability, T/C [1]: 99.3%
viability, T/C [2]: 97%
viability, T/C [3]: 99.2%
viability, T/C [4]: 105%
viability, T/C [5]: 104%
viability, T/C [6]: 107%
viability, T/C [7]: 99.9%
viability, T/C [8]: 93.2%
viability, T/C [9]: 96.1%
viability, T/C [10]: 99.4%
viability, T/C [11]: 101%
viability, T/C [12]: 102%
viability, T/C [13]: 101%
viability, T/C [14]: 99%
viability, T/C [15]: 93.4%
viability, T/C [16]: 90.1%
viability, T/C [17]: 94.4%
viability, T/C [18]: 80.2%
viability, T/C [19]: 80.4%
viability, T/C [20]: 87.2%
viability, T/C [21]: 76.6%
viability, T/C [22]: 82.9%
viability, T/C [23]: 80.5%
viability, T/C [24]: 62.8%
viability, T/C [25]: 53.9%
viability, T/C [26]: 52.8%
viability, T/C [27]: 56.4%
viability, T/C [28]: 40.7%
viability, T/C [29]: 22.7%
viability, T/C [30]: 19.5%

Cn1nccc1Nc1nccc(-c2cc3c(s2)C(C)(C)N(CCN2CCOCC2)C3=O)n1 + C=CC(=O)N1CCN(c2nc(=O)n(-c3c(C)ccnc3C(C)C)c3nc(-c4c(O)cccc4F)c(F)cc23)C(C)C1
pIC50 (second compound 0.1 µM): 6.38
pIC50 (second compound 0.316 µM): 6.29
pIC50 (second compound 1 µM): 6.30
pIC50 (second compound 3.16 µM): 6.54
pIC50 (second compound 10 µM): 6.99
viability, T/C [1]: 101%
viability, T/C [2]: 89.7%
viability, T/C [3]: 62.6%
viability, T/C [4]: 10.8%
viability, T/C [5]: 5.84%
viability, T/C [6]: 9.07%
viability, T/C [7]: 92.9%
viability, T/C [8]: 91.9%
viability, T/C [9]: 73.7%
viability, T/C [10]: 15.9%
viability, T/C [11]: 7.21%
viability, T/C [12]: 9.45%
viability, T/C [13]: 97.5%
viability, T/C [14]: 85.5%
viability, T/C [15]: 74.2%
viability, T/C [16]: 12.6%
viability, T/C [17]: 8.16%
viability, T/C [18]: 10.1%
viability, T/C [19]: 89.1%
viability, T/C [20]: 83.5%
viability, T/C [21]: 47.4%
viability, T/C [22]: 9.35%
viability, T/C [23]: 11.3%
viability, T/C [24]: 9.1%
viability, T/C [25]: 70.3%
viability, T/C [26]: 50.8%
viability, T/C [27]: 12.8%
viability, T/C [28]: 5.63%
viability, T/C [29]: 2.98%
viability, T/C [30]: 2.56%

CC(=O)OC12COC1CC(O)C1(C)C(=O)C(O)C3=C(C)C(OC(=O)C(O)C(NC(=O)OC(C)(C)C)c4ccccc4)CC(O)(C(OC(=O)c4ccccc4)C21)C3(C)C (stereo not given) + C=CC(=O)N1CCN(c2nc(OCC3CCCN3C)nc3c2CCN(c2cccc4cccc(C)c24)C3)CC1CC#N
pIC50 (second compound 0.0316 µM): > 8.00
pIC50 (second compound 0.1 µM): > 8.00
pIC50 (second compound 0.316 µM): > 8.00
pIC50 (second compound 1 µM): > 8.00
pIC50 (second compound 3.16 µM): > 8.00
viability, T/C [31]: 5.4%
viability, T/C [32]: 3.51%
viability, T/C [33]: 2.98%
viability, T/C (second compound 0.0316 µM, first compound 0.316 µM): 2.96%
viability, T/C (second compound 0.0316 µM, first compound 1 µM): 3.29%
viability, T/C (second compound 0.0316 µM, first compound 3.16 µM): 3.21%
viability, T/C [34]: 4.93%
viability, T/C [1]: 3.47%
viability, T/C [2]: 3.22%
viability, T/C [3]: 2.86%
viability, T/C [4]: 3.09%
viability, T/C [5]: 3.2%
viability, T/C [35]: 3.71%
viability, T/C [7]: 3.26%
viability, T/C [8]: 3.24%
viability, T/C [9]: 2.85%
viability, T/C [10]: 2.97%
viability, T/C [11]: 3.26%
viability, T/C [36]: 4.4%
viability, T/C [13]: 4.12%
viability, T/C [14]: 3.41%
viability, T/C [15]: 3%
viability, T/C [16]: 3.17%
viability, T/C [17]: 2.9%
viability, T/C [37]: 4.54%
viability, T/C [19]: 3.92%
viability, T/C [20]: 3.17%
viability, T/C [21]: 3.26%
viability, T/C [22]: 3.28%
viability, T/C [23]: 3.25%

CN(C)C/C=C/C(=O)Nc1cc2c(Nc3ccc(F)c(Cl)c3)ncnc2cc1O[C@H]1CCOC1 + C=CC(=O)N1CCN(c2nc(OCC3CCCN3C)nc3c2CCN(c2cccc4cccc(C)c24)C3)CC1CC#N
pIC50 (second compound 0.0316 µM): < 7.00
pIC50 (second compound 0.1 µM): < 7.00
pIC50 (second compound 0.316 µM): < 7.00
pIC50 (second compound 1 µM): < 7.00
pIC50 (second compound 3.16 µM): > 9.50
viability, T/C (second compound 0.0316 µM, first compound 0.000316 µM): 98.6%
viability, T/C (second compound 0.0316 µM, first compound 0.001 µM): 106%
viability, T/C (second compound 0.0316 µM, first compound 0.00316 µM): 100%
viability, T/C [31]: 103%
viability, T/C [32]: 118%
viability, T/C [33]: 112%
viability, T/C (second compound 0.1 µM, first compound 0.000316 µM): 109%
viability, T/C (second compound 0.1 µM, first compound 0.001 µM): 95.5%
viability, T/C (second compound 0.1 µM, first compound 0.00316 µM): 94%
viability, T/C [34]: 117%
viability, T/C [1]: 110%
viability, T/C [2]: 105%
viability, T/C (second compound 0.316 µM, first compound 0.000316 µM): 102%
viability, T/C (second compound 0.316 µM, first compound 0.001 µM): 102%
viability, T/C (second compound 0.316 µM, first compound 0.00316 µM): 103%
viability, T/C [35]: 109%
viability, T/C [7]: 111%
viability, T/C [8]: 105%
viability, T/C (second compound 1 µM, first compound 0.000316 µM): 94.6%
viability, T/C (second compound 1 µM, first compound 0.001 µM): 94.5%
viability, T/C (second compound 1 µM, first compound 0.00316 µM): 112%
viability, T/C [36]: 106%
viability, T/C [13]: 98.7%
viability, T/C [14]: 105%
viability, T/C (second compound 3.16 µM, first compound 0.000316 µM): 0.97%
viability, T/C (second compound 3.16 µM, first compound 0.001 µM): 0.41%
viability, T/C (second compound 3.16 µM, first compound 0.00316 µM): 0.31%
viability, T/C [37]: 0.31%
viability, T/C [19]: 0.23%
viability, T/C [20]: 0.38%
